Source: ChEMBL document CHEMBL1201862, “PubChem BioAssay data set” (2004)
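Five concentrations, 48 hours, 96-well plates. The concentration for 50% growth inhibition is given as GI50.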 The source made the active and inactive calls. No stated cut-off is given here; in the data, active = GI50 up to about 1.1 µM and inactive = higher.

Columns and labels:
Experiment in all cases: NCI tumour cell line growth inhibition, 48 h
ACHN = tested on: ACHN
BT-549 = tested on: BT-549
CAKI-1 = tested on: CAKI-1
HCT-116 = tested on: HCT-116
HT-29 = tested on: HT-29
IGROV-1 = tested on: IGROV-1
K562 = tested on: K562
MDA-MB-435 = tested on: MDA-MB-435
NCI-H226 = tested on: NCI-H226
NCI-H23 = tested on: NCI-H23
NCI-H460 = tested on: NCI-H460
NCI-H522 = tested on: NCI-H522
OVCAR-3 = tested on: OVCAR-3
PC-3 = tested on: PC-3
SN12C = tested on: SN12C
TK-10 = tested on: TK-10
UACC-257 = tested on: UACC-257
UACC-62 = tested on: UACC-62

Measured: GI50

COc1cc(=O)n2c3ccccc3n(C)c2c1C#N
inactive: ACHN 76.9 µM | BT-549 > 100 µM | CAKI-1 > 100 µM | HCT-116 43.8 µM | HT-29 74.3 µM | IGROV-1 > 100 µM | K562 > 100 µM | MDA-MB-435 > 100 µM | NCI-H226 > 100 µM | NCI-H23 > 100 µM | NCI-H460 > 100 µM | NCI-H522 > 100 µM | OVCAR-3 > 100 µM | PC-3 > 100 µM | SN12C > 100 µM | TK-10 > 100 µM | UACC-257 > 100 µM | UACC-62 > 100 µM

Cc1ccc(S(=O)(=O)OC2=C/C(=N\c3onc(C)c3C)c3ccccc3C2=O)cc1
inactive: ACHN 26.3 µM | BT-549 33.7 µM | CAKI-1 20 µM | HCT-116 17.6 µM | HT-29 34.2 µM | IGROV-1 > 10 µM | K562 4.41 µM | MDA-MB-435 16.1 µM | NCI-H226 35.4 µM | NCI-H23 22.6 µM | NCI-H460 32.8 µM | NCI-H522 7.46 µM | OVCAR-3 16.5 µM | PC-3 20.6 µM | SN12C 18.7 µM | TK-10 36.6 µM | UACC-257 15.2 µM | UACC-62 20.6 µM

CN1C(=S)C(c2ccccc2)Sc2ccccc21 (stereo unspecified)
inactive: ACHN > 100 µM | BT-549 42.7 µM | CAKI-1 > 100 µM | HCT-116 38.8 µM | HT-29 > 10 µM | IGROV-1 > 100 µM | K562 20.7 µM | MDA-MB-435 57 µM | NCI-H226 90.6 µM | NCI-H23 55.7 µM | NCI-H460 27.8 µM | NCI-H522 54.3 µM | OVCAR-3 48.2 µM | PC-3 17.6 µM | SN12C > 100 µM | TK-10 85.9 µM | UACC-257 30.8 µM | UACC-62 > 100 µM

CCCCn1c(C)c(C(=O)OCC)c2cc(OCc3ccc(C(=O)Nn4c(C)ccc4C)cc3)c(Br)cc21
inactive: ACHN > 100 µM | BT-549 > 100 µM | CAKI-1 > 100 µM | HCT-116 > 100 µM | HT-29 > 100 µM | IGROV-1 > 100 µM | K562 > 100 µM | MDA-MB-435 > 100 µM | NCI-H226 > 100 µM | NCI-H23 > 100 µM | NCI-H460 > 100 µM | NCI-H522 > 100 µM | OVCAR-3 > 100 µM | PC-3 > 100 µM | SN12C > 100 µM | TK-10 > 100 µM | UACC-257 > 100 µM | UACC-62 > 100 µM

CCOC(=O)c1cc2c(OC)cc(OC)cc2oc1=O
inactive: ACHN > 100 µM | BT-549 76 µM | CAKI-1 55.3 µM | HCT-116 > 100 µM | HT-29 > 100 µM | IGROV-1 > 100 µM | K562 > 100 µM | MDA-MB-435 > 100 µM | NCI-H226 > 100 µM | NCI-H23 63.8 µM | NCI-H460 > 100 µM | NCI-H522 52.1 µM | OVCAR-3 > 100 µM | PC-3 > 100 µM | SN12C > 100 µM | TK-10 > 100 µM | UACC-257 > 100 µM | UACC-62 > 100 µM

Cc1cccc2c(=O)c3cccc([C@H](C)C(=O)O)c3oc12
inactive: ACHN > 100 µM | BT-549 > 100 µM | CAKI-1 > 100 µM | HCT-116 > 100 µM | HT-29 > 100 µM | IGROV-1 > 100 µM | K562 > 100 µM | MDA-MB-435 > 100 µM | NCI-H226 > 100 µM | NCI-H23 > 100 µM | NCI-H460 > 100 µM | NCI-H522 > 100 µM | OVCAR-3 > 100 µM | PC-3 > 100 µM | SN12C > 100 µM | TK-10 > 100 µM | UACC-257 > 100 µM | UACC-62 > 100 µM

Nc1ccc(C(=O)O)cc1.Nc1nc(N)c2nc[nH]c2n1
inactive: ACHN 17 µM | BT-549 78 µM | CAKI-1 13.6 µM | HCT-116 15.2 µM | HT-29 20.4 µM | IGROV-1 29.9 µM | K562 20 µM | MDA-MB-435 12.2 µM | NCI-H226 > 100 µM | NCI-H23 23.5 µM | NCI-H460 21.6 µM | NCI-H522 17.8 µM | OVCAR-3 19.1 µM | PC-3 22.3 µM | SN12C 39 µM | TK-10 19.8 µM | UACC-257 17.5 µM | UACC-62 11.1 µM
